Source: patent US20240398813A1, “PHARMACEUTICAL COMPOSITION FOR PREVENTING OR TREATING OVERACTIVE BLADDER” (GWANGJU INSTITUTE OF SCIENCE AND TECHNOLOGY, priority 2021, published 2024)

How the values were obtained:
[1] = target: T1, hyperactive mutant BKCa channels (hSlo G803D/N806K) stably expressed in AD 293 cells (Homo sapiens, UniProt Q12791, G856D/N859K); assay: Cell-based fluorescence assay (FluxOR Potassium Ion Channel Assay) of BKCa channel activation; set-up: key to Channel activity increase for 80 s (ΔRFU) at 6 μM: ratio of ΔRFU (RFU at 100 s − 20 s) to the same ΔRFU for vehicle
T1 construct: expressed in transfected cells
Outline: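 AD 293 cells stably expressing hSlo G803D/N806K were exposed to compound in assay buffer for 15 min, then read by FluxOR thallium-flux fluorescence (ex 485/em 528 nm) every 2 s for 120 s. Initial rate vi from 20–24 s; ΔRFU from 20–100 s, normalised to vehicle and measured at 6 μM; apparent EC50 from dose-response fit.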

[2] = target: T1, hyperactive mutant BKCa channels (hSlo G803D/N806K) stably expressed in AD 293 cells; assay: as above; conditions: compounds at 5 μM; n=3; vehicle 0.26
[3] = test system: Spontaneously hypertensive rats (SHR); assay: In vivo model of OAB: urination in spontaneously hypertensive rats after oral administration; set-up: species or system rat; conditions: 3 hours
Method: Male rats with body weights of 300 to 350 g were deprived of food and water overnight before the experiment, and then were randomly divided into a drug administration group and a control group. All animals were provided free access to water for 2 hours, and then 10 mL/kg of vehicle solution [DMSO:PEG400:distilled water=5:40:55 (v/v)] as a test substance were orally administered. After oral administration of the test substance, the rats were placed in a metabolic cage and the number of urinations and urine volume were measured for 3 hours.
The in vivo treatment effects of the compounds for […] were investigated in spontaneously hypertensive rats (SHR) with OAB symptoms after oral administration. Wistar-Kyoto rats (WKY) were used as the healthy animal control, and urination frequency was increased more than 2.8 times in SHR compared to WKY. Compound 208 reduced the urination frequency in SHR (50 mg/kg) by 33%, which is quite close to the urination frequency of the normal group (see FIG. 18).

T1 sequence (Q12791 whole entry G856D/N859K): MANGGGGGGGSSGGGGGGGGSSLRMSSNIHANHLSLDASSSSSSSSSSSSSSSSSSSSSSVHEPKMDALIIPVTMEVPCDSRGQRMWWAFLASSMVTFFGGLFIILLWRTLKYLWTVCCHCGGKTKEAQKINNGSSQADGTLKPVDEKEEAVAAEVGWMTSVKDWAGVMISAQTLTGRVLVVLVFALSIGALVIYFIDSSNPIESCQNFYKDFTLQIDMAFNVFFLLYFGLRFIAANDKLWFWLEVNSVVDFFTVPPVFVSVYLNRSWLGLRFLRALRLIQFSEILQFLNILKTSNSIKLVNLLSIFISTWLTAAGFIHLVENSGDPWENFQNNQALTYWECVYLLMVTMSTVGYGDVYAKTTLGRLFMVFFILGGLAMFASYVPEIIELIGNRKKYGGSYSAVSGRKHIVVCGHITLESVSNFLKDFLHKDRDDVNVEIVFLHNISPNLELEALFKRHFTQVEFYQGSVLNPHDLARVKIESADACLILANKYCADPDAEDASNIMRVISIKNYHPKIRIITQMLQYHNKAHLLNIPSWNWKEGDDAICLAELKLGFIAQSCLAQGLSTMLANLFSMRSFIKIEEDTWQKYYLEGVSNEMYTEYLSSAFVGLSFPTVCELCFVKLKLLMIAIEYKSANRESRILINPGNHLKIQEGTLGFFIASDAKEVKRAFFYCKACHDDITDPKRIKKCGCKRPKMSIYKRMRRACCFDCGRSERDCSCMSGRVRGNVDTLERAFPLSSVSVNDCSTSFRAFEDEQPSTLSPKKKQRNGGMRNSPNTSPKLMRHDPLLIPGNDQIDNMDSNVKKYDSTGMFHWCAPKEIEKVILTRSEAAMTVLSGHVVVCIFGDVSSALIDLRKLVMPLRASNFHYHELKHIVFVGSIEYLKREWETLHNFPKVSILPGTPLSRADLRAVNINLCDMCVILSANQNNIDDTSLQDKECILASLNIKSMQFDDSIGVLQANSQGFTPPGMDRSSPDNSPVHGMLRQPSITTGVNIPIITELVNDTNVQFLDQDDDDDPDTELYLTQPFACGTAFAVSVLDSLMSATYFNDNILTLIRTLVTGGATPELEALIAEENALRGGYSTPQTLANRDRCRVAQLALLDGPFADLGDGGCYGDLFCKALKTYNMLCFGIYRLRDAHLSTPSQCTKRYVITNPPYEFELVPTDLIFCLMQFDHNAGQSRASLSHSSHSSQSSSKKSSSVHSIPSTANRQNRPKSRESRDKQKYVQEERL

## Cc1cccc(NC(=O)c2sc(=S)n3c2[nH]c(=O)c2cc(Br)ccc23)c1 [TTQC-1, 7-bromo-5-oxo-1-thioxo-N-(m-tolyl)-4,5-dihydro-1H-thiazolo[3,4-a]quinazoline-3-carboxamide]
[1]; 2 μM TTQC-1, 1 μM paxillin and 0.1 μM iberiotoxin
  increase in fluorescence induced by TTQC-1 in the presence of BKCa channel inhibitors: removed
[1]; 3 μM
  activation effect on the BKCa channel relative to LDD175: 1.6 times
  activation effect on the BKCa channels at a single concentration: most potent effect
[1]; 6 μM
  effect (ΔRFU) relative to vehicle: 4.98±0.05 times
[1]; 6 μM, first 4 s after channel stimulation
  Initial velocity of channel activation for 4 s (vi) at 6 μM: 9.77 s⁻¹
[1]; 6 μM, normalized by vehicle
  Channel activity increase for 80 s (ΔRFU) at 6 μM: 4.98
[1]; 0.6-10 μM tested
  concentration at which the Tl+ flux effect was saturated: 6 µM
[1]; TTQC-1 at concentrations above 4 μM
  TTQC-1 activation effect in the presence of 0.1 μM iberiotoxin: activated the BKCa channels
[1]; TTQC-1 at concentrations below 2 μM
  TTQC-1 activation effect in the presence of 0.1 μM iberiotoxin: eliminated
[1]; fit of dose-response curve of initial rates, read-out: Apparent EC50 based on vi
  EC50: 5.74 µM
[2]
  Activity (ΔRFU normalized by activities of LDD175): 1.06
[3]; 10 mg/kg oral, SHR vehicle 8.2
  number of urinary events: 3.0
[3]; oral
  total urine volume: significantly reduced
